Data from ChEMBL document CHEMBL5634119, “Design and synthesis of 4th generation EGFR inhibitors against human triple (Del19/T790M/C797S) mutation” (Eur J Med Chem, 2023).
Each block holds one molecule with its values, some of them ahead of it.

Key:
HCC827 = assay: Antiproliferative activity against human HCC827 cells harboring EGFR Del19 mutant incubated for 72 hrs by SRB assay; type: functional, cell-based; conditions: HCC827, 72 h
[1] = Inhibition of EGFR del19/T790M/C797S triple mutant in mouse BAF3 cells assessed as reduction in cell proliferation incubated for 3 days by celltiter-glo assay; type: cell-based; conditions: BaF3, 72 h
[2] = Inhibition of wild type EGFR in mouse BAF3 cells assessed as reduction in cell proliferation incubated for 3 days by celltiter-glo assay; type: cell-based; conditions: BaF3, 72 h
NCI-H1975 [3] = assay: Antiproliferative activity against human NCI-H1975 cells harboring EGFR L858R/T790M mutant incubated for 72 hrs by SRB assay; type: functional, cell-based; conditions: NCI-H1975, 72 h
PC-9 [4] = assay: Antiproliferative activity against human PC-9 cells harboring EGFR Del19/T790M/C797S mutant incubated for 72 hrs by SRB assay; type: functional, cell-based; conditions: PC-9, 72 h
NCI-H1975 [5] = assay: Antiproliferative activity against human NCI-H1975 cells harboring EGFR L858R/T790M/C797S mutant incubated for 72 hrs by SRB assay; type: functional, cell-based; conditions: NCI-H1975, 72 h
A-431 = assay: Antiproliferative activity against human A-431 cells harboring wild type EGFR incubated for 72 hrs by SRB assay; type: functional, cell-based; conditions: A-431, 72 h
PC-9 [6] = assay: Potency index, ratio of Brigatinib IC50 to test compound IC50 for antiproliferative activity against human PC-9 cells harboring EGFR Del19/T790M/C797S mutant incubated for 72 hrs by SRB assay; type: functional
NCI-H1975 [7] = assay: Potency index, ratio of Brigatinib IC50 to test compound IC50 for antiproliferative activity against human NCI-H1975 cells harboring EGFR L858R/T790M/C797S mutant incubated for 72 hrs by SRB assay; type: functional
[8] = molecular target: T1, Epidermal growth factor receptor (Homo sapiens, UniProt P00533, C797S/EX19DEL/T790M); assay: Inhibition of EGFR del19/T790M/C797S triple mutant (unknown origin) in presence of ATP by FRET assay
T1 sequence (P00533 whole entry, looked up, stated change not applied): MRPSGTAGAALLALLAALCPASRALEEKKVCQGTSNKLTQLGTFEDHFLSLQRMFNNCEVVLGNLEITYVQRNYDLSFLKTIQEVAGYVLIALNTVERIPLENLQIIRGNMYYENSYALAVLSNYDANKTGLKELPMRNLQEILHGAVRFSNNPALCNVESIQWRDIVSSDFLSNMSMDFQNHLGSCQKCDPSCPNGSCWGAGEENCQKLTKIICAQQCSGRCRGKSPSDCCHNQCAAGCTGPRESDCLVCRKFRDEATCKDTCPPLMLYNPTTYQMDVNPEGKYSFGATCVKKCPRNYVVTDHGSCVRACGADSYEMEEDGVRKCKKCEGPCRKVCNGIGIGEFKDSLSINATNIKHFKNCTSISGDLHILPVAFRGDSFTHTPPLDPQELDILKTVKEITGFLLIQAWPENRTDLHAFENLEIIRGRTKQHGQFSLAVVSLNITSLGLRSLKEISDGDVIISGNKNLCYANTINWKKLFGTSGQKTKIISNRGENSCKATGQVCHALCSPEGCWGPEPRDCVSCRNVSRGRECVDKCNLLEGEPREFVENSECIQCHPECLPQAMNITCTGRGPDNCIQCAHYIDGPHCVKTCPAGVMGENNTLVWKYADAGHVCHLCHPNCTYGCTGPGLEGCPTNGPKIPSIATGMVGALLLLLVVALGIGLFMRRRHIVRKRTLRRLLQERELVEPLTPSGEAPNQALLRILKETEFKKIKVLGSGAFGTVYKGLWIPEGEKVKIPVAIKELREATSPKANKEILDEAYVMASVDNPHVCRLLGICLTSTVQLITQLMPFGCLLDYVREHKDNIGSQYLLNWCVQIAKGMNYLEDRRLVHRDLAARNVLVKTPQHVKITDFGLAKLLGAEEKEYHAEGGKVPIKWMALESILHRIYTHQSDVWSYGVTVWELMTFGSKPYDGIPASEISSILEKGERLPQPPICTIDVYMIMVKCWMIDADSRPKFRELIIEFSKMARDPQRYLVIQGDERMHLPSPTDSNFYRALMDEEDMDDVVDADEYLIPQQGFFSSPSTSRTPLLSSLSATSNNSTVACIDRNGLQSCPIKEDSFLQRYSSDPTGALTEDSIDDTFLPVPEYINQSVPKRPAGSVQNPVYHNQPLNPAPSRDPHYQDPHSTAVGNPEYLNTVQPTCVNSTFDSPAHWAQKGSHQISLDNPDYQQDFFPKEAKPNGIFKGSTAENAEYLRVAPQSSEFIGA

[9] = molecular target: Epidermal growth factor receptor (Homo sapiens, UniProt P00533, C797S/L858R/T790M); assay: Inhibition of EGFR L858R/T790M/C797S triple mutant (unknown origin) in presence of ATP by FRET assay
Sequence of Epidermal growth factor receptor (Homo sapiens, UniProt P00533, C797S/L858R/T790M) (P00533 25-1210 T790M/C797S/L858R limits assumed): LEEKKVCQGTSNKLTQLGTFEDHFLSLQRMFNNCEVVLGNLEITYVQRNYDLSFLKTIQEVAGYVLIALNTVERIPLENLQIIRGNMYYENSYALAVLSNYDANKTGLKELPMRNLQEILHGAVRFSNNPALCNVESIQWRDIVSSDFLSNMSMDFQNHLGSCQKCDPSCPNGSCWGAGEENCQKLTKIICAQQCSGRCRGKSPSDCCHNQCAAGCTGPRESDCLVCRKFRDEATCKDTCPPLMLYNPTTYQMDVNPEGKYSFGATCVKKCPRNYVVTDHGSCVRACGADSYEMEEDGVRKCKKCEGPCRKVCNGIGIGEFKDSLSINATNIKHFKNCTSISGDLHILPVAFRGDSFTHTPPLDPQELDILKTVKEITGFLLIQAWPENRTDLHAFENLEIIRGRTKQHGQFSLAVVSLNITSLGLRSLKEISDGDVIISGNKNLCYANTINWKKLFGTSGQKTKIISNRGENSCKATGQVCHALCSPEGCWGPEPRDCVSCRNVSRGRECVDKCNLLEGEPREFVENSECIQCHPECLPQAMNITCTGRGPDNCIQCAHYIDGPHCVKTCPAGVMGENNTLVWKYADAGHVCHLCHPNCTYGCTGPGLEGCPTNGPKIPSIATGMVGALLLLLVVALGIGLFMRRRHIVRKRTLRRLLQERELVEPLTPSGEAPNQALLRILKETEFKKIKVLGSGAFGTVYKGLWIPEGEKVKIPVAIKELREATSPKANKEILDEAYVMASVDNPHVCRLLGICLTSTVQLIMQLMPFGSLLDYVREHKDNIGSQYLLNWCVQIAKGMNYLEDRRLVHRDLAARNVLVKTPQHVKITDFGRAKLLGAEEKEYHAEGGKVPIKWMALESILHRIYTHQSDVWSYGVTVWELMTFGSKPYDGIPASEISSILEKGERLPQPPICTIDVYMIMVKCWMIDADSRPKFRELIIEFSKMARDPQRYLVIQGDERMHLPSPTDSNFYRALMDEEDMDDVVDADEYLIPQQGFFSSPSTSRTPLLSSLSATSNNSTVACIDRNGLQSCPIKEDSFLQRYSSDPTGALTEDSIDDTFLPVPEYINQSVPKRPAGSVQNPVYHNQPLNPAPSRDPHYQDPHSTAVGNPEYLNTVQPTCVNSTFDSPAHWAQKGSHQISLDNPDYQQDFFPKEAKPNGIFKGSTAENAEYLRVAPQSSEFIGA

[10] = molecular target: T2, Epidermal growth factor receptor (Homo sapiens, UniProt P00533); assay: Inhibition of wild type EGFR (unknown origin) in presence of ATP by FRET assay
T2 sequence (P00533 whole entry): as the sequence (P00533 whole entry, looked up, stated change not applied) above

[11] = Microsomal stability in human liver microsome assessed as parent compound remaining preincubated with compound for 60 mins and measured after 1 hr by HPLC analysis; type: ADME; conditions: liver microsomes, time 2 hrs, read-out: Stability
[12] = Microsomal stability in mouse liver microsome assessed as parent compound remaining preincubated with compound for 60 mins and measured after 1 hr by HPLC analysis; type: ADME; conditions: liver microsomes, time 2 hrs, read-out: Stability
[13] = Plasma protein binding in human assessed as unbound fraction measured after 6 hrs by rapid equilibrium dialysis based LC-MS/MS analysis; type: ADME, cell-free
[14] = Plasma protein binding in mouse assessed as unbound fraction measured after 6 hrs by rapid equilibrium dialysis based LC-MS/MS analysis; type: ADME, cell-free
[15] = Stability in human plasma assessed as parent compound remaining measured after 2 hrs by LC-MS/MS analysis; type: ADME, cell-free; conditions: read-out: Stability
[16] = Stability in mouse plasma assessed as parent compound remaining measured after 2 hrs by LC-MS/MS analysis; type: ADME, cell-free; conditions: read-out: Stability
[17] = molecular target: T1, Epidermal growth factor receptor; assay: Inhibition of EGFR phosphorylation in human PC-9 cells harboring Del19/T790M/C797S mutant incubated for 6 hrs by Western blot analysis; type: cell-based
[18] = Inhibition of ERK phosphorylation in human PC-9 cells harboring Del19/T790M/C797S mutant incubated for 6 hrs by Western blot analysis; type: cell-based; conditions: PC-9, 6 h
[19] = Inhibition of AKT phosphorylation in human PC-9 cells harboring Del19/T790M/C797S mutant incubated for 6 hrs by Western blot analysis; type: cell-based; conditions: PC-9, 6 h
[20] = molecular target: T2, Epidermal growth factor receptor; assay: Inhibition of EGFR phosphorylation in human A-431 cells harboring wild type EGFR incubated for 6 hrs by Western blot analysis; type: cell-based
[21] = Inhibition of ERK phosphorylation in human A-431 cells harboring wild type EGFR incubated for 6 hrs by Western blot analysis; type: cell-based; conditions: A-431, 6 h
[22] = Inhibition of AKT phosphorylation in human A-431 cells harboring wild type EGFR incubated for 6 hrs by Western blot analysis; type: cell-based; conditions: A-431, 6 h
[23] = AUC (0 to 24 hrs) in mouse at 5 mg/kg, iv measured upto 24 hrs by LC-MS/MS analysis; type: ADME, organism-based; conditions: in vivo
[24] = AUC (0 to 24 hrs) in mouse at 75 mg/kg, po measured upto 24 hrs by LC-MS/MS analysis; type: ADME, organism-based; conditions: in vivo
[25] = Cmax in mouse at 5 mg/kg, iv measured upto 24 hrs by LC-MS/MS analysis; type: ADME, organism-based; conditions: in vivo
[26] = Cmax in mouse at 75 mg/kg, po measured upto 24 hrs by LC-MS/MS analysis; type: ADME, organism-based; conditions: in vivo
[27] = Tmax in mouse at 75 mg/kg, po measured upto 24 hrs by LC-MS/MS analysis; type: ADME, organism-based; conditions: in vivo
[28] = Half life in mouse at 5 mg/kg, iv measured upto 24 hrs by LC-MS/MS analysis; type: ADME, organism-based; conditions: in vivo
[29] = Half life in mouse at 75 mg/kg, po measured upto 24 hrs by LC-MS/MS analysis; type: ADME, organism-based; conditions: in vivo
[30] = Clearance in mouse at 5 mg/kg, iv measured upto 24 hrs by LC-MS/MS analysis; type: ADME, organism-based; conditions: in vivo
[31] = Volume of distribution at steady state in mouse at 5 mg/kg, iv measured upto 24 hrs by LC-MS/MS analysis; type: ADME, organism-based; conditions: in vivo, read-out: Vdss
[32] = Oral bioavailability in mouse at 75 mg/kg measured upto 24 hrs by LC-MS/MS analysis; type: ADME, organism-based; conditions: in vivo
[33] = Toxicity in NOD-SCID mouse xenografted with human PC-9 cells harboring Del19/T790M/C797S triple mutant assessed as body weight loss at 50 mg/kg, sc bid administered for 14 days; type: organism-based; conditions: in vivo, 336 h, time 14 day
[34] = Toxicity in NOD-SCID mouse xenografted with human PC-9 cells harboring Del19/T790M/C797S triple mutant assessed as clinical signs at 50 mg/kg, sc bid administered for 14 days; type: organism-based; conditions: in vivo, 336 h, time 14 day

- IC50 (HCC827): 121 nM
- IC50 (NCI-H1975 [3]): 178 nM
- IC50 (PC-9 [4]): 155 nM
- IC50 (NCI-H1975 [5]): 202 nM
- IC50 (A-431): 334 nM
- IC50 [8]: 9.2 nM
- IC50 [9]: 12.7 nM
- IC50 [10]: > 10000 nM
- remaining at 1 h [11]: 41.9%
- remaining at 1 h [12]: 33%
- fraction unbound at 6 h [13]: 0.916
- fraction unbound at 6 h [14]: 0.926
- remaining at 2 h [15]: 91.8%
- remaining at 2 h [16]: 97.8%
- IC50 [17]: 9.6 nM
- IC50 [18]: 23 nM
- IC50 [19]: 27 nM
- IC50 [20]: 1320 nM
- IC50 [21]: 3940 nM
- IC50 [22]: 2160 nM
- AUC(0-t) at 24 h [23]: 978 ng·h/mL
- AUC(0-t) at 24 h [24]: 34000 ng·h/mL
- Cmax [25]: 4550 ng/mL
- Cmax [26]: 6030 ng/mL
- Tmax [27]: 30 min
- half-life [28]: 42 min
- half-life [29]: 138 min
- clearance [30]: 85 mL/min/kg
- Vd [31]: 2 L/kg
- bioavailability [32]: > 100%
SMILES: CCN1CCN(c2ccc(Nc3nc(Nc4ccccc4N(C)S(C)(=O)=O)c4cc[nH]c4n3)cc2F)CC1
- IC50 [1]: 10.1 nM
- IC50 [2]: 667 nM
- Ratio IC50 (PC-9 [6]): 5.4
- Ratio IC50 (NCI-H1975 [7]): 5.4
- Activity [33]: Non-Toxic
- Activity [34]: Non-Toxic

SMILES: CC(C)S(=O)(=O)N(C)c1ccccc1Nc1nc(Nc2ccc(N3CCN(C)CC3)c(F)c2)nc2[nH]ccc12
- IC50 [1]: 49 nM
- IC50 [2]: 185 nM

SMILES: CN1CCN(c2ccc(Nc3nc(Nc4ccccc4N(C)S(C)(=O)=O)c4cc[nH]c4n3)cc2)CC1
- IC50 [1]: 28.4 nM
- IC50 [2]: 120 nM

SMILES: CN1CCN(c2ccc(Nc3nc(Nc4ccccc4N(C)S(=O)(=O)C4CC4)c4cc[nH]c4n3)cc2F)CC1
- IC50 [1]: 29.6 nM
- IC50 [2]: 214 nM

SMILES: CCS(=O)(=O)N(C)c1ccccc1Nc1nc(Nc2ccc(N3CCN(C)CC3)c(F)c2)nc2[nH]ccc12
- IC50 [1]: 16.4 nM
- IC50 [2]: 238 nM

SMILES: CCCN1CCN(C2CCN(c3ccc(Nc4nc(Nc5ccccc5N(C)S(C)(=O)=O)c5cc[nH]c5n4)cc3F)CC2)CC1
- IC50 [1]: 84.2 nM
- IC50 [2]: 754 nM

SMILES: CC(C)N1CCN(C2CCN(c3ccc(Nc4nc(Nc5ccccc5N(C)S(C)(=O)=O)c5cc[nH]c5n4)cc3F)CC2)CC1
- IC50 [1]: 82.4 nM
- IC50 [2]: 620 nM

SMILES: CC(C)N(c1ccccc1Nc1nc(Nc2ccc(N3CCN(C)CC3)c(F)c2)nc2[nH]ccc12)S(C)(=O)=O
- IC50 [1]: 71.2 nM
- IC50 [2]: 307 nM

SMILES: COc1cc(Nc2nc(Nc3ccccc3N(C)S(C)(=O)=O)c3cc[nH]c3n2)ccc1N1CCN(C)CC1
- IC50 [1]: 36.7 nM
- IC50 [2]: 41.4 nM

SMILES: CCCN1CCN(c2ccc(Nc3nc(Nc4ccccc4N(C)S(C)(=O)=O)c4cc[nH]c4n3)cc2F)CC1
- IC50 [1]: 142 nM
- IC50 [2]: 687 nM

SMILES: CN(c1ccccc1Nc1nc(Nc2ccc(N3CCC(N4CCN(C5CC5)CC4)CC3)c(F)c2)nc2[nH]ccc12)S(C)(=O)=O
- IC50 [1]: 213 nM
- IC50 [2]: 815 nM

SMILES: Cc1cc(Nc2nc(Nc3ccccc3N(C)S(C)(=O)=O)c3cc[nH]c3n2)ccc1N1CCN(C)CC1
- IC50 [1]: 30.8 nM
- IC50 [2]: 41.7 nM

SMILES: CN1CCN(c2ccc(Nc3nc(Nc4ccccc4N(C)S(C)(=O)=O)c4cc[nH]c4n3)c(F)c2)CC1
- IC50 [1]: 157 nM
- IC50 [2]: 202 nM

SMILES: CN(c1ccccc1Nc1nc(Nc2ccc(N3CCCCC3)cc2)nc2[nH]ccc12)S(C)(=O)=O
- IC50 [1]: 566 nM
- IC50 [2]: 1240 nM
